Experimental data taken from the supplement of paper PMC7840683.
Where a name gives a salt, the structure may show the parent alone. ± gives the standard deviation of the averaged measurements.

Test system: HepaRG
Experiment: LDH release cytotoxicity, % of total lysis control; higher = more cytotoxic
Conditions: 48 h
Procedure, shortened: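 HepaRG cells from a single lot were plated on collagen I-coated 96-well plates and treated in duplicate for 48 h with eight-point half-log series of test chemicals, starting at 100 µM, in serum-free induction medium containing 0.5% DMSO. Total lysis wells were given 0.1% Triton X. LDH released into 50 µL of spent medium was measured as resorufin fluorescence with CytoTox-ONE on a Tecan Safire. Percent cytotoxicity was normalized to on-plate vehicle and total lysis controls and then averaged across duplicates.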

Row | Compound | LDH release cytotoxicity (0.03162 µM) [%] | LDH release cytotoxicity (0.1 µM) [%] | LDH release cytotoxicity (0.3162278 µM) [%] | LDH release cytotoxicity (1 µM) [%] | LDH release cytotoxicity (3.16228 µM) [%] | LDH release cytotoxicity (10 µM) [%] | LDH release cytotoxicity (31.6228 µM) [%] | LDH release cytotoxicity (100 µM) [%] | also measured
1 | CC(=O)SC(C(=O)NC1Cc2ccccc2C2CCCC(C(=O)O)N2C1=O)C(C)C (centres undefined) [Ilepatril] | -3.01 ± 0.96 | -3.51 ± 0.86 | -2.73 ± 1.2 | -2.08 ± 0.5 | -2.73 ± 0.96 | -1.99 ± 0.38 | -1.05 ± 0.81 | -0.123 ± 0.4 | –
2 | C=CCOC(Cn1ccnc1)c1ccc(Cl)cc1Cl (centres undefined) [Imazalil] | -1.02 ± 1.2 | -0.85 ± 0.77 | -0.00888 ± 0.2 | -0.601 ± 1.6 | -0.652 ± 0.76 | 0.29 ± 0.16 | 8.422 ± 0.022 | 69.6 ± 12 | –
3 | COCc1cnc(C2=NC(C)(C(C)C)C(=O)N2)c(C(=O)O)c1 (centres undefined) [Imazamox] | -0.37 ± 0.36 | -1.71 ± 1.1 | -1.61 ± 0.19 | -1.73 ± 0.34 | -1.43 ± 0.53 | -1.49 ± 0.15 | -2 ± 0.16 | -0.764 ± 0.39 | –
4 | Cc1cnc(C2=NC(=O)C(C)(C(C)C)N2)c(C(=O)O)c1 (centres undefined) [Imazapic] | -0.83 ± 0.63 | -2.27 ± 0.52 | -1.6 ± 0.34 | -1.46 ± 0.11 | -1.69 ± 0.21 | -0.919 ± 0.055 | -0.228 ± 0.13 | 0.017 ± 1.6 | –
5 | CC(C)C1(C)N=C(c2ncccc2C(=O)O)NC1=O (centres undefined) [Imazapyr] | -1.83 ± 0.41 | -1.02 ± 0.061 | -1.62 ± 0.63 | -0.872 ± 0.078 | -0.897 ± 0.67 | -1.03 ± 0.39 | -0.823 ± 0.31 | 0.363 ± 0.9 | –
6 | CC(C)C1(C)N=C(c2nc3ccccc3cc2C(=O)O)NC1=O (centres undefined) [Imazaquin] | -3.4 ± 0.27 | -3.18 ± 1.6 | -1.28 ± 0.9 | -2.88 ± 1.6 | -0.995 ± 1 | -0.807 ± 1.1 | -0.68 ± 1 | 2.17 ± 0.069 | –
7 | CCc1cnc(C2=NC(C)(C(C)C)C(=O)N2)c(C(=O)O)c1 (centres undefined) [Imazethapyr] | -0.727 ± 0.19 | -1.781 ± 0.0048 | -1.13 ± 0.36 | -1.33 ± 0.57 | -1.54 ± 0.26 | -1.13 ± 0.26 | -0.237 ± 0.13 | 0.45 ± 0.53 | –
8 | O=[N+]([O-])/N=C1\NCCN1Cc1ccc(Cl)nc1 [Imidacloprid] | -2.56 ± 0.29 | -1.08 ± 1.5 | -1.14 ± 2.6 | -1.66 ± 2.5 | -1.89 ± 1.9 | -0.694 ± 1.4 | -0.538 ± 0.36 | 1.58 ± 0.76 | –
9 | [As]#[In] [Indium arsenide] | 0.449 ± 0.65 | -0.971 ± 1.1 | 0.268 ± 0.68 | -0.269 ± 0.016 | 0.376 ± 0.79 | 0.749 ± 0.43 | 0.141 ± 0.26 | 1.11 ± 0.32 | –
10 | COC(=O)N(C(=O)N1COC2(C(=O)OC)Cc3cc(Cl)ccc3C2=N1)c1ccc(OC(F)(F)F)cc1 (centres undefined) [Indoxacarb] | – | – | – | – | – | – | – | – | LDH release cytotoxicity (0.0253 µM): -0.813 ± 0.062%; LDH release cytotoxicity (0.08 µM): 0.513 ± 0.93%; LDH release cytotoxicity (0.252982 µM): -1.47 ± 0.66%; LDH release cytotoxicity (0.8 µM): -0.957 ± 0.72%; LDH release cytotoxicity (2.52982 µM): -0.16 ± 1.7%; LDH release cytotoxicity (8 µM): -0.511 ± 0.2%; LDH release cytotoxicity (25.2982 µM): 0.453 ± 1.4%; LDH release cytotoxicity (80 µM): 14.2 ± 2.2%
11 | O=C(NC(Cc1ccccc1)C(O)C(=O)N1CC(O)C(O)C1)c1cc2cc(Cl)ccc2[nH]1 (centres undefined) [Ingliforib] | -1.12 ± 1.5 | -2 ± 0.27 | -1.41 ± 1.2 | -0.89 ± 0.66 | -0.718 ± 0.6 | -0.896 ± 0.48 | -1.06 ± 0.19 | 8.47 ± 1.3 | –
12 | COC(=O)c1ccc(I)cc1S(=O)(=O)NC(=O)Nc1nc(C)nc(OC)n1 [Iodosulfuron-methyl-sodium] | -1.49 ± 0.12 | -0.389 ± 1.6 | -1.21 ± 0.34 | -0.477 ± 0.51 | -0.16 ± 0.13 | 0.897 ± 0.24 | 0.0334 ± 0.38 | 2.49 ± 0.31 | –
13 | CC(C)NC(=O)N1CC(=O)N(c2cc(Cl)cc(Cl)c2)C1=O [Iprodione] | -0.45 ± 0.15 | -1.34 ± 0.23 | -0.949 ± 0.21 | -1.27 ± 0.32 | -1.29 ± 0.11 | -0.662 ± 0.57 | 1.78 ± 0.13 | 4.73 ± 0.47 | –
14 | CCOP(=S)(OCC)Oc1nc(Cl)n(C(C)C)n1 [Isazofos] | – | -1.65 ± 0.25 | – | -2.59 ± 0.06 | -3.48 ± 0.65 | -3 ± 0.69 | -3.67 ± 1.1 | 1.66 ± 0.81 | LDH release cytotoxicity (0.031623 µM): 0.0296 ± 0.94%; LDH release cytotoxicity (0.316228 µM): -2.1 ± 1%
15 | CC=Cc1ccc(O)c(OC)c1 [Isoeugenol] | -2.86 ± 1.2 | -2.42 ± 0.51 | -2.55 ± 0.96 | -3.05 ± 1.7 | -2.354 ± 0.0053 | -2.16 ± 0.6 | -2.4 ± 0.96 | -1.84 ± 1.7 | –
16 | NNC(=O)c1ccncc1 [Isoniazid] | – | – | – | – | – | – | – | – | LDH release cytotoxicity (0.013914 µM): -1.4 ± 0.98%; LDH release cytotoxicity (0.044 µM): -0.0891 ± 1.3%; LDH release cytotoxicity (0.13914 µM): -1.34 ± 0.49%; LDH release cytotoxicity (0.44 µM): -1.05 ± 1.1%; LDH release cytotoxicity (1.3914 µM): -1.62 ± 0.34%; LDH release cytotoxicity (4.4 µM): -0.682 ± 2%; LDH release cytotoxicity (13.914 µM): -0.843 ± 0.11%; LDH release cytotoxicity (44 µM): -0.0914 ± 0.33%
17 | C=CC(=O)OCCCCCC(C)C [Isooctyl acrylate] | -1 ± 0.16 | -1.54 ± 0.15 | -2.08 ± 0.28 | -1.07 ± 0.63 | -1.61 ± 0.64 | -1.55 ± 0.55 | -0.382 ± 0.33 | 0.567 ± 1.4 | –
18 | CC(C)CCO [Isopentyl alcohol] | – | – | – | – | – | – | – | – | LDH release cytotoxicity (0.0317809 µM): -1.55 ± 0.48%; LDH release cytotoxicity (0.1005 µM): -1.43 ± 0.1%; LDH release cytotoxicity (0.317809 µM): -2.18 ± 0.83%; LDH release cytotoxicity (1.005 µM): -2.36 ± 0.33%; LDH release cytotoxicity (3.17809 µM): -1.495 ± 0.0016%; LDH release cytotoxicity (10.05 µM): -1.51 ± 0.068%; LDH release cytotoxicity (31.7809 µM): -1.18 ± 0.042%; LDH release cytotoxicity (100.5 µM): -0.0999 ± 0.2%
19 | CCCC(=O)OCCC(C)C [Isopentyl butyrate] | 0.497 ± 0.0082 | -0.72 ± 1.4 | -0.446 ± 0.5 | -0.671 ± 1.2 | 0.184 ± 1.4 | 0.168 ± 0.62 | 0.438 ± 0.51 | 1.65 ± 0.66 | –
20 | CC1(C)CC(N=C=O)CC(C)(CN=C=O)C1 (centres undefined) [Isophorone diisocyanate] | -2.14 ± 0.59 | -2.6 ± 0.31 | -2.25 ± 1.1 | -2.1 ± 0.37 | -1.35 ± 0.43 | -1.724 ± 0.015 | -2.21 ± 0.73 | 0.405 ± 0.69 | –
21 | CC1=CC(=O)CC(C)(C)C1 [Isophorone] | -0.205 ± 0.22 | 0.529 ± 2.1 | -0.132 ± 0.62 | -0.235 ± 0.13 | 0.145 ± 0.46 | 1.04 ± 0.22 | 0.514 ± 0.36 | 1.74 | –
22 | CCCN(CCC)c1c([N+](=O)[O-])cc(C(C)C)cc1[N+](=O)[O-] [Isopropalin] | -0.731 ± 0.3 | -1.48 ± 0.89 | -2.92 ± 0.17 | -1.36 ± 0.06 | -1.98 ± 0.26 | -1.28 ± 0.079 | -1.55 ± 0.27 | -0.986 ± 0.92 | –
23 | CC(C)[O-].CC(C)[O-].[O-]CCN(CCO)CCO.[O-]CCN(CCO)CCO.[Ti+4] [Isopropyl triethanolamine titanate] | -5.22 ± 4.5 | -1.09 ± 0.96 | -0.881 ± 0.2 | -0.333 ± 0.037 | 0.622 ± 0.39 | 0.156 ± 1.4 | 0.0089 ± 0.55 | 0.6851 ± 0.0067 | –
24 | CC(C)NCC(O)c1ccc(O)c(O)c1 (centres undefined) [Isoproterenol hydrochloride] | -1.33 ± 0.21 | -0.922 ± 5.4 | 0.959 ± 0.54 | 2.34 ± 1.1 | 2.16 ± 0.62 | -0.0702 ± 0.068 | -1.75 ± 0.25 | -1.61 ± 0.35 | –
25 | CCC(C)(CC)c1cc(NC(=O)c2c(OC)cccc2OC)on1 [Isoxaben] | -2.09 ± 1.5 | -2.04 ± 0.44 | -2.03 ± 0.16 | -2.59 ± 0.72 | -2.88 ± 0.57 | -1.64 ± 0.83 | -1.59 ± 0.14 | 11.4 ± 1.3 | –
26 | CS(=O)(=O)c1cc(C(F)(F)F)ccc1C(=O)c1cnoc1C1CC1 [Isoxaflutole] | -0.368 ± 0.91 | -1.2 ± 0.74 | -2.1 ± 0.12 | -1.58 ± 1.2 | -0.928 ± 1.1 | -0.455 ± 0.32 | -0.687 ± 0.2 | 0.934 ± 0.86 | –
27 | O=C1C2(Cl)C3(Cl)C4(Cl)C(Cl)(Cl)C5(Cl)C3(Cl)C1(Cl)C5(Cl)C24Cl (centres undefined) [Kepone] | -0.309 ± 0.28 | 0.458 ± 0.64 | -0.526 ± 0.16 | -0.604 ± 0.8 | -0.552 ± 0.22 | -0.815 ± 0.31 | 8.06 ± 1.2 | 90.1 ± 3.4 | –
28 | CC(=O)N1CCN(c2ccc(OCC3COC(Cn4ccnc4)(c4ccc(Cl)cc4Cl)O3)cc2)CC1 (centres undefined) [Ketoconazole] | -3.06 ± 0.81 | -3.11 ± 0.33 | -2.22 ± 0.27 | -2.59 ± 0.32 | -2.26 ± 0.88 | 2.6 ± 2.2 | 1.63 ± 0.66 | 80.8 ± 7.1 | –
